pIC50: −log10 of the molar value.
Experiments:
[1] = target: Human immunodeficiency virus type 1 protease (Human immunodeficiency virus 1, UniProt Q72874); test: In vitro inhibitory concentration against HIV-1 protease
[2] = target: Human immunodeficiency virus type 1 protease (Human immunodeficiency virus 1) (UniProt Q72874); test: Tested for the relative potency against HIV-1 protease in the cellular antiviral assay
Renin = target: T1, Renin (Homo sapiens, UniProt P00797); test: In vitro inhibitory concentration against renin
T1 sequence (P00797 whole entry): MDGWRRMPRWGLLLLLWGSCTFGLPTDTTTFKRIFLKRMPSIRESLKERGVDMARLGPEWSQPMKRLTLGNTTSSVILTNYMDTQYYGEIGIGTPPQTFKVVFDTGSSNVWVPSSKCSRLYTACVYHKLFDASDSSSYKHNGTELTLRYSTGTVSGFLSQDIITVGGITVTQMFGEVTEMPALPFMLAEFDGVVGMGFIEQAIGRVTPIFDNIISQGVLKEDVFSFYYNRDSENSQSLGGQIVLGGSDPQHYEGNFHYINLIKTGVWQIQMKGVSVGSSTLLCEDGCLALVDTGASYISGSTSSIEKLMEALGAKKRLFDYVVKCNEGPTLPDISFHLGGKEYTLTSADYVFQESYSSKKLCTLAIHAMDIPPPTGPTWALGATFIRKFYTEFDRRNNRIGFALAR

SMILES	pIC50 [1]	IC95 [2]	pIC50 (Renin)
CC(C)C[C@@]1(C2=C(O)[C@](Cc3ccccc3)(C[C@H](O)[C@H](Cc3ccccc3)NC(=O)O[C@@H]3CCOC3)N=C2)N=CC([C@@H](Cc2ccccc2)C(N)=O)=C1O	8.89	800 nM	–
CC(C)C[C@@]1(C2=C(O)[C@](Cc3ccccc3)(C[C@H](O)[C@H](Cc3ccccc3)NC(=O)OC(C)(C)C)N=C2)N=CC([C@@H](Cc2ccccc2)C(N)=O)=C1O	8.00	1500 nM	–
CC(C)C[C@H](NC(=O)[C@H](Cc1ccccc1)C[C@H](O)[C@H](Cc1ccccc1)NC(=O)OC(C)(C)C)C(=O)N[C@@H](Cc1ccccc1)C(N)=O	–	6000 nM	–
CC(C)C[C@H](O)[C@H](O)[C@H](CC1CCCCC1)C1=C(O)[C@](CC(C)C)(C2=C(O)[C@@](CC(=O)N3CCOCC3)(Cc3ccccc3)N=C2)N=C1	–	–	4.74
CC(C)C[C@@H](C(=O)N[C@@H](CC1CCCCC1)[C@@H](O)[C@@H](O)CC(C)C)C1=C(O)[C@@](CC(=O)N2CCOCC2)(Cc2ccccc2)N=C1	–	–	6.22
